We go through one molecule from patent publication US20240082313A1, “PHARMACEUTICAL COMPOSITIONS AND THEIR METHODS OF USE” (The Trustees of Indiana University, priority 2021, published 2024).

Assay [1] deals with EO771 cells. Kind of assay: Mouse model of mammary tumors. It is filed as in vivo. The note with it: EO771 cells in mammary fat pad. An excerpt:
(§1) Animal models. The experimental procedures using animals were approved by the Indiana University Animal Care and Use Committee and were complied with the Guiding Principles in the Care and Use of Animals endorsed by the American Physiological Society. Mice were housed five per cage and provided with mouse chow and water ad libitum. In the mouse model of mammary tumors, C57BL/6 female mice (˜8 weeks, Envigo RMS, Inc., Indianapolis, IN, USA) were randomly assigned into five groups (14 mice per group). The placebo groups received cells transfected with a negative control vector, and the negative control group received cells transfected with β-catenin overexpression vector. The three treatment groups received β-catenin overexpressing iTS CM, BML-treated cells, and BML-treated iTS CM. Each group received a subcutaneous injection of EO771 cells (3.0×10^5 cells in 50 μl PBS) to the mammary fat pad. For tibial osteolysis, C57BL/6 female mice (8 mice per group) received an intra-tibial injection of EO771 cells (2.5×10^5 cells in 20 μl PBS) to the right tibia. The treatment group received iTS cell-derived CM as an injection into the intraperitoneal cavity. The animals were sacrificed on day 18, and the weight of each tumor was measured. To evaluate the effects of CMs for tumor invasion, an in vivo extravasation assay was conducted. […]

The subject of assay [2] is EO771 cells. Kind of assay: In vivo extravasation assay. Details: species or system mouse. Conditions: EO771 cells via tail vein.
From the text: as §1

Assay [3] relates to human breast cancer and prostate cancer tissues. Kind of assay: Ex vivo tissue assay. It is filed as cell-based. Conditions: breast (ER-positive and -negative) and prostate cancer tissue. The protocol:
Ex vivo tissue assay. The usage of human breast cancer and prostate cancer tissues was approved by the Indiana University Institutional Review Board. Two human breast cancer tissues (˜1 g each; estrogen receptor-positive and -negative) and prostate cancer tissue (˜1 g), received from Simon Cancer Center Tissue Procurement Core, were manually fragmented with a scalpel into small pieces (0.5˜0.8 mm in length). These pieces were grown in DMEM with 10% fetal bovine serum and antibiotics for a day. iTS cell-derived conditioned medium was then added for three additional days, and a change in the fragment size was determined. BML284 (10 μM) or β-catenin (40 ng/μ1) was applied to tissue fragments and CM was prepared as described above.

On to `COc1cccc(-c2cc(NCc3ccc4c(c3)OCO4)nc(N)n2)c1` [BML284], for which the tumor weight entry in assay [1] is “Increase”. The “number of tumor cells in the lung” value in assay [2] was “Increase”. For the same molecule, the “size of cancer tissue fragments” value in assay [3] is listed as “modestly increased”.
